Results: patent publication US6525059B1, “Substituted pyrazoles as p38 kinase inhibitors” (G. D. Searle & Company, priority 1998, dated 2003)
Where a name gives a salt, the structure may show the parent alone. Read-outs that look alike come from different tables or passages of the source.

Tests used:
[1] = tested on: TNF-α; assay: LPS stimulation of TNF production by U937 cells; assay type: cell-based, human; conditions: Homo sapiens; for inhibition at 1 µM: U-937, @ 1.0 uM, read-out: U937 Cell % inhib @ conc.
Summary of the method: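 PMA-differentiated human U937 cells (20 ng/ml PMA, 24 h, then 24-48 h rest) at 2 million cells/ml, 0.1% DMSO final, stimulated with E. coli LPS (100 ng/ml final) for 4 h at 37° C. TNF-α in medium measured by ELISA; IC50 in μM.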

[2] = tested on: TNF-α; assay: Rat assay: LPS-challenged rats, serum TNF-α by ELISA; assay type: in vivo; conditions: for inhibition in vivo at 5 mg/kg: read-out: Rat LPS Model % Inhibition @ dose @ predose time
Protocol: The efficacy of the novel compounds in blocking the production of TNF also was evaluated using a model based on rats challenged with LPS. Male Harlen Lewis rats [Sprague Dawley Co.] were used in this model. Each rat weighed approximately 300 g and was fasted overnight prior to testing. Compounds administration was typically by oral gavage (although intraperitoneal, subcutaneous and intravenous administration were also used in a few instances) 1 to 24 hours prior to the LPS challenge. Rats were administered 30 μg/kg LPS [salmonella typhosa, Sigma Co.] intravenously via the tail vein. Blood was collected via heart puncture 1 hour after the LPS challenge. Serum samples were stored at −20° C. until quantitative analysis of TNF-α by Enzyme Linked-Immuno-Sorbent Assay (“ELISA”) [Biosource]. Additional details of the assay are set forth in Perretti, M., et al., Br. J. Pharmacol. (1993), 110, 868-874, which is incorporated by reference in this application.
In vivo assessment of the ability of the compounds to inhibit LPS-stimulated TNF release in the rat is shown in the column identified as:
wherein in the dose is milligram per kilogram (mpk) administered by oral gavage and the predose time indicates the number of hours before LPS challenge when the compound is administered.

[3] = biological target: T1, human p38 kinase alpha (Homo sapiens, UniProt Q16539); assay: p38 kinase in vitro assay, phosphorylation of biotinylated PHAS-I with gamma 32P-ATP; assay type: biochemical
T1 construct: The coding region of the human p38a cDNA was obtained by PCR-amplification from RNA isolated from the human monocyte cell line THP.1; GST (N); made in house; host or cells: E. coli DH10B
T1 sequence (Q16539 whole entry): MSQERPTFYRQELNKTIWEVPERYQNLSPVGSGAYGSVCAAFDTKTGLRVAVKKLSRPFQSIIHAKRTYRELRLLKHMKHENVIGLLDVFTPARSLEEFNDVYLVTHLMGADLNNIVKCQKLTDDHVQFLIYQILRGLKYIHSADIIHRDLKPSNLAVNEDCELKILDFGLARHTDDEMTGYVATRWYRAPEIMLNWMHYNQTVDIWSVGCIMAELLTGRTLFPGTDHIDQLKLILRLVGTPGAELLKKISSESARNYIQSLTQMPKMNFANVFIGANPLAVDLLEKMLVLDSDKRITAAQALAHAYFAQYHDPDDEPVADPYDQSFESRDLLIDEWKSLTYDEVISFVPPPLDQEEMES
Summary of the method: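 Radiometric filter-capture read-out: streptavidin plates trap biotin-PHAS-I labelled by activated (MKK6) human p38α from γ-32P-ATP. Buffer 25 mM HEPES pH 7.5, 10 mM magnesium acetate, 50 μM cold ATP; reactions 1 h or overnight at 30 °C; inhibitors 10-fold dilutions 100 to 0.001 μM, triplicates, 1% DMSO.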

[4] = Rattus norvegicus, po, -4 h, 3 mpk oral gavage, -4h before LPS, read-out: Rat LPS Model % inhib @ dose @ predose time
[5] = 3 mpk oral gavage, -4h before LPS
[6] = 3 mpk oral gavage, 4 h before LPS challenge
[7] = Rattus norvegicus, po, 5 mpk oral gavage, 4 h before LPS challenge
[8] = read-out: P38 alpha kinase IC50

## C[C@@H](NS(=O)(=O)c1ccc(F)c(Cl)c1)c1[nH]nc(-c2ccc(F)cc2)c1-c1ccncc1 [Example B-0466]
[1]
  inhibition at 1 µM: 98%
[2]; [4]
  inhibition in vivo at 3 mg/kg: 0%

## CC(NS(=O)(=O)c1ccc(Cl)s1)c1[nH]nc(-c2ccc(F)cc2)c1-c1ccncc1 (stereo not drawn) [Example B-0650]
[2]; [5]
  Rat LPS Model % inhib @ dose @ predose time: 8% @ 3 mpk @ -4h

## O=C(C1CC1)N1CCC(c2[nH]nc(-c3ccc(F)cc3)c2-c2ccncc2)CC1 [Example B-1364]
[2]; [6]
  Rat LPS Model % inhib @ dose @ predose time: 17% @ 3 mpk @ -4h

## CN1CCC(c2[nH]nc(-c3ccc(Cl)cc3)c2-c2ccncn2)CC1 [Example C-137]
[2]; [7]
  inhibition in vivo at 5 mg/kg: 58%
[3]; [8]
  IC50: 0.051 µM

## C[C@@H](NS(=O)(=O)c1cccc(Br)c1)c1[nH]nc(-c2ccc(F)cc2)c1-c1ccncc1 [Example B-0455]
[1]
  inhibition at 1 µM: 95%
[2]; [4]
  inhibition in vivo at 3 mg/kg: 36%

## CCOC(=O)N[C@H](C)c1[nH]nc(-c2ccc(F)cc2)c1-c1ccncc1 [Example B-0426]
[1]; U-937, TNF production, LPS-stimulated human U937 cells, read-out: U937 Cell IC50
  IC50: 0.74 µM
[2]; [4]
  inhibition in vivo at 3 mg/kg: 41%
[3]; [8]
  IC50: 0.055 µM

## CC(NS(=O)(=O)c1ccc(F)cc1)c1[nH]nc(-c2ccc(F)cc2)c1-c1ccncc1 (stereo not drawn) [Example B-0562]
[2]; [5]
  Rat LPS Model % inhib @ dose @ predose time: 5% @ 3 mpk @ -4h

## CN(C)CC(=O)N1CCC(c2[nH]nc(-c3ccc(Cl)cc3)c2-c2ccncc2)CC1 [Example C-122]
[2]; [7]
  inhibition in vivo at 5 mg/kg: 55%
[3]; [8]
  IC50: 0.025 µM

## C[C@@H](NS(=O)(=O)N(C)C)c1[nH]nc(-c2ccc(F)cc2)c1-c1ccncc1 [Example B-0487]
[2]; [4]
  inhibition in vivo at 3 mg/kg: 54%

## COc1ccc(S(=O)(=O)NC(C)c2[nH]nc(-c3ccc(F)cc3)c2-c2ccncc2)cc1 (stereo not drawn) [Example B-0574]
[2]; [5]
  Rat LPS Model % inhib @ dose @ predose time: 37% @ 3 mpk @ -4h

## CC(NS(=O)(=O)Cc1ccccc1)c1[nH]nc(-c2ccc(F)cc2)c1-c1ccncc1 (stereo not drawn) [Example B-0566]
[2]; [5]
  Rat LPS Model % inhib @ dose @ predose time: 0% @ 3 mpk @ -4h

## Cc1ccc(S(=O)(=O)NC(C)c2[nH]nc(-c3ccc(F)cc3)c2-c2ccncc2)cc1 (stereo not drawn) [Example B-0576]
[2]; [5]
  Rat LPS Model % inhib @ dose @ predose time: 65% @ 3 mpk @ -4h

## O=C(c1ccc(F)cc1)N1CCC(c2[nH]nc(-c3ccc(F)cc3)c2-c2ccncc2)CC1 [Example B-1360]
[2]; [6]
  Rat LPS Model % inhib @ dose @ predose time: 54% @ 3 mpk @ -4h

## N[C@H]1CC[C@@H](c2[nH]nc(-c3cccc(Cl)c3)c2-c2ccncc2)CC1 [Example C-105, 5-cis-(4-AMINOCYCLOHEXYL)-4-(4-PYRIDYL)-3-(3-CHLOROPHENYL)PYRAZOLE]
[2]; [7]
  inhibition in vivo at 5 mg/kg: 46%
[3]; [8]
  IC50: 0.033 µM

## Fc1ccc(-c2n[nH]cc2-c2ccnc(NCCN3CCC(N4CCCCC4)CC3)c2)cc1 [Example A-350, N-(2-[1,4′-bipiperidin]-1′-ylethyl)-4-[3-(4-fluorophenyl)-1H-pyrazol-4-yl]-2-pyridinamine]
[2]; Rattus norvegicus, po, Table 9, dose 20 mg/kg
  inhibition in vivo at 20 mg/kg: 65%

## CC(NS(=O)(=O)c1ccc(F)c(Cl)c1)c1[nH]nc(-c2ccc(F)cc2)c1-c1ccncc1 (stereo not drawn) [Example B-0643]
[2]; [5]
  Rat LPS Model % inhib @ dose @ predose time: 0% @ 3 mpk @ -4h

## CC(NS(=O)(=O)c1cccc(Cl)c1)c1[nH]nc(-c2ccc(F)cc2)c1-c1ccncc1 (stereo not drawn) [Example B-0639]
[2]; [5]
  Rat LPS Model % inhib @ dose @ predose time: 50% @ 3 mpk @ -4h

## CC(NS(=O)(=O)c1ccc(C#N)cc1)c1[nH]nc(-c2ccc(F)cc2)c1-c1ccncc1 (stereo not drawn) [Example B-0656]
[2]; [5]
  Rat LPS Model % inhib @ dose @ predose time: 28% @ 3 mpk @ -4h

## O=C(O)CCC(=O)N1CCN(c2n[nH]c(-c3ccc(Cl)cc3)c2-c2ccncc2)CC1 [A-321 (monosodium salt dihydrate), 4-[5-(4-chlorophenyl)-4-(4-pyridinyl)-1H-pyrazol-3-yl]-γ-oxo-1-piperazinebutanoic acid, monosodium salt dihydrate]
[2]; Rattus norvegicus, po, read-out: Rat LPS Assay % Inhibition
  inhibition in vivo at 3 mg/kg: 14%

## O=C(CO)N1CCC(c2[nH]nc(-c3ccc(Cl)cc3)c2-c2ccncn2)CC1 [Example D-1, N-(2-Hydroxyacetyl)-5-(4-piperidyl)-4-(4-pyrimidyl)-3-(4-chlorophenyl)pyrazole]
[2]; Rattus norvegicus, po, 1.0 mg/kg oral gavage, 4 hours before LPS challenge, read-out: ratLPS/% Inh @1.0 (mg/kg)
  inhibition in vivo at 1 mg/kg: 83%

## 5-[2-(1,1-DIMETHYL)AMINOETHYL]-4-(4-PYRIDYL)-3-(4-FLUOROPHENYL)PYRAZOLE [Example C-114]
[2]; 5 mpk oral gavage, 4 h before LPS challenge
  Rat LPS Model % Inhibition @ dose @ predose time: 39% @ 5 mpk @ −4h

## CC(NC(=O)C(C)(C)C)c1[nH]nc(-c2ccc(F)cc2)c1-c1ccncc1 (stereo not drawn) [Example B-0601]
[2]; [5]
  Rat LPS Model % inhib @ dose @ predose time: 43% @ 3 mpk %-4h

## CCCNC(=O)N[C@H](C)c1[nH]nc(-c2ccc(F)cc2)c1-c1ccncc1 [Example B-0413]
[1]
  inhibition at 1 µM: 55%
[3]; [8]
  IC50: 0.18 µM

## CNC(=O)N[C@H](C)c1[nH]nc(-c2ccc(F)cc2)c1-c1ccncc1 [Example B-0408]
[1]
  inhibition at 1 µM: 50%
[3]; [8]
  IC50: 0.5 µM

## Cn1cnc(S(=O)(=O)NCc2[nH]nc(-c3ccc(F)cc3)c2-c2ccncc2)c1 [Example B-0266]
[1]
  inhibition at 1 µM: 24%
[3]; [8]
  IC50: 0.25 µM

## Fc1ccc(-c2n[nH]c(NCCCN3CCOCC3)c2-c2ccncc2)cc1 [Example A-286, N-[5-(4-fluorophenyl)-4-(4-pyridinyl)-1H-pyrazol-3-yl]-4-morpholinepropanamine]
[1]; U-937, LPS-stimulated U937 cells, read-out: U937 IC50
  IC50: 0.09 µM
[3]; p38α in vitro, PHAS-I assay procedure, read-out: p38^1 IC50
  IC50: 0.057 µM

## N#Cc1cccc(C(=O)NCc2[nH]nc(-c3ccc(F)cc3)c2-c2ccncc2)c1 [Example B-0274]
[1]
  inhibition at 1 µM: 25%
[3]; [8]
  IC50: 2.68 µM

## CC(C)COC(=O)N[C@H](C)c1[nH]nc(-c2ccc(F)cc2)c1-c1ccncc1 [Example B-0382]
[1]
  inhibition at 1 µM: 32%
[3]; [8]
  IC50: 0.41 µM

## O=S(=O)(NCc1[nH]nc(-c2ccc(F)cc2)c1-c1ccncc1)c1cccc2cnccc12 [Example B-0265]
[1]
  inhibition at 1 µM: 24%
[3]; [8]
  IC50: 0.92 µM

## CN(C)c1cccc2c(S(=O)(=O)NCc3[nH]nc(-c4ccc(F)cc4)c3-c3ccncc3)cccc12 [Example B-0122]
[1]
  inhibition at 1 µM: 2%
[3]; @ 10.0 uM, read-out: P38 alpha kinase % inhib @ conc.
  inhibition at 10 µM: 79%

## C[C@@H](NC(=O)c1cccs1)c1[nH]nc(-c2ccc(F)cc2)c1-c1ccncc1 [Example B-0528]
[1]
  inhibition at 1 µM: 70%
[3]; [8]
  IC50: 0.14 µM

## COc1ccc(Cl)cc1S(=O)(=O)N[C@H](C)c1[nH]nc(-c2ccc(F)cc2)c1-c1ccncc1 [Example B-0478]
[1]
  inhibition at 1 µM: 87%
[3]; [8]
  IC50: 0.034 µM

## CCOC(=O)NCc1[nH]nc(-c2ccc(F)cc2)c1-c1ccncc1 [Example B-0204]
[1]
  inhibition at 1 µM: 48%
[3]; [8]
  IC50: 0.21 µM

## C[C@@H](NS(=O)(=O)c1cccc2ccccc12)c1[nH]nc(-c2ccc(F)cc2)c1-c1ccncc1 [Example B-0441]
[1]
  inhibition at 1 µM: 58%
[3]; [8]
  IC50: 0.8 µM

## C[C@@H](NC(=O)c1cccnc1)c1[nH]nc(-c2ccc(F)cc2)c1-c1ccncc1 [Example B-0377]
[1]
  inhibition at 1 µM: 36%
[3]; [8]
  IC50: 1.29 µM

## C[C@@H](NC(=O)C1CCCC1)c1[nH]nc(-c2ccc(F)cc2)c1-c1ccncc1 [Example B-0376]
[1]
  inhibition at 1 µM: 12%
[3]; [8]
  IC50: 2.99 µM

## COc1ccc(C)cc1S(=O)(=O)N[C@H](C)c1[nH]nc(-c2ccc(F)cc2)c1-c1ccncc1 [Example B-0470]
[1]
  inhibition at 1 µM: 92%
[3]; [8]
  IC50: 0.063 µM

## C[C@@H](NC(=O)c1cccc(C(F)(F)F)c1)c1[nH]nc(-c2ccc(F)cc2)c1-c1ccncc1 [Example B-0495]
[1]
  inhibition at 1 µM: 25%
[3]; [8]
  IC50: 0.12 µM

## CCCNC(=O)NCc1[nH]nc(-c2ccc(F)cc2)c1-c1ccncc1 [Example B-0213]
[1]
  inhibition at 1 µM: 39%
[3]; [8]
  IC50: 0.31 µM
